# Data: patent US20250205467A1, “SYSTEMS AND METHODS FOR THE TREATMENT OF CANCER USING ULTRASOUND” (Duke University, priority 2022, published 2025)
# Legend:
# [1] = test system: MM3MG-ESR1mut (Y537N, Y537S, D538G); test: Response of MM3MG-ESR1mut cells to standard endocrine therapies; assay type: cell-based, mouse; settings: data not shown
# Method: Using DNA deep-sequencing technology, recent studies have identified several conserved mutations to the […] of ESR1 in a significant proportion (˜30-40%) of endocrine-resistant metastatic ER+ breast cancer patients. As no established models of endocrine-resistant ER+ breast cancer existed in immunocompetent mice, an ER+ endocrine resistant breast cancer cell line model was generated that would grow in immune competent syngeneic animals. MM3MG cells were artificially transformed with wild-type or mutated human ESR1 (Y537N, Y537S, D538G).
# Therefore, the established murine breast cancer cell lines, MM3MG-ESR1mut (Y537N, Y537S, D538G), simulate patients' metastatic ER+ breast cancers, that are endocrine-resistant, having ESR1 gene mutation, and behave more aggressively.
# 4T1 tumors = settings: combined with thermal ablative focused ultrasound; CD8 and CD4 T cell-dependent; cited from earlier work
# [2] = test system: pre-treated locally advanced or recurrent TNBC; test: Single arm, prospective clinical trial of intratumoral pIL-12 (TAVO) monotherapy (OMS-140); assay type: in vivo, human; settings: one patient previously unresponsive to anti-PD1; after 1 cycle of IL-12 treatment and 3 months of therapy
# Method: The clinical safety of the therapy was tested in a single arm, prospective clinical trial of intratumoral pIL-12 (TAVO) monotherapy (OMS-140) in pre-treated locally advanced or recurrent TNBC.
compound,measurement,setting,value
CC/C(=C(\c1ccccc1)c1ccc(OCCN(C)C)cc1)c1ccccc1 [Tamoxifen],sensitivity of the cells to standard endocrine therapies,[1],completely resistant
Nc1ccn([C@@H]2O[C@H](CO)[C@@H](O)C2(F)F)c(=O)n1 [gemcitabine],tumor control and survival of mice,4T1 tumors,enhanced tumor control and improved survival
nivolumab,clinical response of lung metastases,[2],profound clinical response
